Measured values reported in the NIST ThermoML archive (doi:10.1016/j.jct.2009.06.019).

Key:
[1] = xn = mol fraction of the nth substance listed; conditions: 101.3 kPa, Liquid, Vibrating tube method
[2] = 101.33 kPa, Liquid, Vibrating tube method

CN1CCN(C)C1=O [1,3-dimethyl-2-imidazolidinone] + O
mass density [kg/m3], [1]
Conditions | 278.15 K | 288.15 K | 298.15 K | 308.15 K | 313.15 K | 318.15 K
x1 = 0.000904 | 1000.51 | 999.59 | 997.49 | 994.45 | 992.61 | 990.61
x1 = 0.001349 | 1000.75 | 999.82 | 997.72 | 994.65 | 992.81 | 990.8
x1 = 0.001765 | 1000.99 | 1000.04 | 997.92 | 994.84 | 992.99 | 990.96
x1 = 0.002486 | 1001.42 | 1000.44 | 998.29 | 995.19 | 993.33 | 991.29
x1 = 0.003566 | 1002.08 | 1001.05 | 998.84 | 995.7 | 993.82 | 991.77
x1 = 0.004326 | 1002.53 | 1001.45 | 999.22 | 996.05 | 994.15 | 992.09
x1 = 0.005478 | 1003.25 | 1002.09 | 999.81 | 996.59 | 994.68 | 992.59
x1 = 0.006268 | 1003.72 | 1002.53 | 1000.22 | 996.97 | 995.04 | 992.94
x1 = 0.006996 | 1004.16 | 1002.93 | 1000.57 | 997.3 | 995.36 | 993.25
x1 = 0.008039 | 1004.82 | 1003.54 | 1001.14 | 997.82 | 995.85 | 993.72
x1 = 0.008854 | 1005.33 | 1004.01 | 1001.57 | 998.22 | 996.23 | 994.08

CN1CCN(C)C1=O [1,3-dimethyl-2-imidazolidinone]
[2]
Conditions | mass density [kg/m3]
278.15 K | 1069.3
288.15 K | 1060.43
298.15 K | 1051.6
308.15 K | 1042.79
313.15 K | 1038.38
318.15 K | 1034

CN1CCN(C)C1=O [1,3-dimethyl-2-imidazolidinone] + [2H]O[2H]
mass density [kg/m3], [1]
Conditions | 278.15 K | 288.15 K | 298.15 K | 308.15 K | 313.15 K | 318.15 K
x1 = 0.001014 | 1105.53 | 1105.7 | 1104.24 | 1101.46 | 1099.65 | 1097.62
x1 = 0.001853 | 1105.6 | 1105.72 | 1104.2 | 1101.34 | 1099.52 | 1097.48
x1 = 0.002463 | 1105.67 | 1105.72 | 1104.15 | 1101.29 | 1099.44 | 1097.38
x1 = 0.003372 | 1105.77 | 1105.73 | 1104.13 | 1101.19 | 1099.33 | 1097.23
x1 = 0.004298 | 1105.89 | 1105.78 | 1104.08 | 1101.13 | 1099.22 | 1097.09
x1 = 0.004982 | 1105.97 | 1105.83 | 1104.06 | 1101.05 | 1099.13 | 1097.01
x1 = 0.006229 | 1106.16 | 1105.89 | 1104.06 | 1100.95 | 1099 | 1096.83
x1 = 0.007163 | 1106.33 | 1105.96 | 1104.06 | 1100.89 | 1098.91 | 1096.72
x1 = 0.008054 | 1106.48 | 1106.05 | 1104.07 | 1100.87 | 1098.85 | 1096.62
x1 = 0.009084 | 1106.65 | 1106.13 | 1104.08 | 1100.81 | 1098.77 | 1096.51
x1 = 0.01051 | 1106.96 | 1106.33 | 1104.16 | 1100.77 | 1098.67 | 1096.37

[2H]O[2H] [water-d2] + CN1CCN(C)C1=O
[1], x2 = 0
Conditions | mass density [kg/m3]
278.15 K | 1105.46
288.15 K | 1105.7
298.15 K | 1104.31
308.15 K | 1101.59
313.15 K | 1099.83
318.15 K | 1097.81
